The values below come from patent publication US10310377B2, “Material for forming film for lithography, composition for forming film for lithography, film for lithography, pattern forming method and purification method” (Mitsubishi Gas Chemical Company, Inc., priority 2014, dated 2019).

Data set [1] can be described thus: Solubility in PGME, PGMEA, CPN and CHN at 23° C.
Method: Herein, the solubility in PGME and/or PGMEA, and/or CPN, and/or CHN is defined as “Mass of resin/(Mass of resin+Mass of solvent)×100 (% by mass)”.
The amount of each compound dissolved in 1-methoxy-2-propanol (PGME), propylene glycol monomethyl ether acetate (PGMEA), cyclopentanone (CPN), and cyclohexanone (CHN) was measured at 23° C., and the results were evaluated according to the following criteria.
Evaluation A: 10% by mass or more
Evaluation B: less than 10% by mass
Data set [2] is described as follows: Thermogravimetric measurement (TG), 15% thermal weight loss temperature. It is filed as physicochemical.
[3] abbreviates: cyclopentanone and cyclohexanone.
Setting [4] is: 1-methoxy-2-propanol and propylene glycol monomethyl ether acetate.

For `c1ccc2c(c1)c1ccccc1c1c3ccccc3c3ccccc3c21` [DBC, dibenzo[g,p]chrysene], in data set [1] (setting [3]), the “solubility in CPN and CHN” value is given as not below 10 % by mass; the “solubility in CPN and CHN (Evaluation)” value was “A (10% by mass or more)”. Also, the “15% thermal weight loss temperature” value in data set [2] is not below 400 °C.

For tetraallyloxydibenzochrysene [TAODBC], in data set [1] (setting [4]), the “solubility in PGME and PGMEA” value is on record as not below 10 % by mass; the “solubility in PGME and PGMEA (Evaluation)” value is “A (10% by mass or more)”.
